Values of other authors, collected in article PMC9899610 (Cancer Science, 2022).
Where two headings read alike, the source gives them in different places.

Test system: patients with advanced or metastatic cholangiocarcinoma; urothelial carcinoma
Conditions: cited from earlier work
[1] = patients with advanced or metastatic cholangiocarcinoma

Row | Compound | Retinal AEs requiring dose interruption or treatment discontinuation | Hyperphosphatemia, patients [1] | Hyperphosphatemia, patients (patients with urothelial carcinoma) | Patients who discontinued treatment because of retinal detachment (phase II study)
1 | CCN1CCN(c2ccc(Nc3cc(N(C)C(=O)Nc4c(Cl)c(OC)cc(OC)c4Cl)ncn3)cc2)CC1 [infigratinib] | two discontinuations | 77% | – | –
2 | CCN1C(=O)N(c2c(F)c(OC)cc(OC)c2F)Cc2cnc3[nH]c(CN4CCOCC4)cc3c21 [pemigatinib] | one dose interruption | 60% | – | –
3 | COc1cc(OC)cc(N(CCNC(C)C)c2ccc3ncc(-c4cnn(C)c4)nc3c2)c1 [erdafitinib] | – | – | 77% | 13%
